This note sets out measurements from US11236049B2, “Amorphous and crystalline forms of IDO inhibitors” (BRISTOL-MYERS SQUIBB COMPANY, priority 2017, dated 2022).

Read-outs that look alike come from different tables or passages of the source.

Data set [1] is classed as physicochemical.
The conditions of data set [2]: for AUC (Mean) / Dissolution Rate (Mean): 150 mg in 250 mL (0.60 mg/mL API equivalent), 37° C.
Description: Microdissolution Microdissolution experiments were conducted in a pIon μDiss Profiler microdissolution instrument (pION μDiss Profiler) with a fiber optic UV monitoring system, as follows: Probes: 2.5 mm probes (5 mm path length) Volume: 15 ml Stirring: 150 rpm Temperature: 37° C. […] The target doses were 150 mg in 250 mL (0.60 mg/mL API equivalent) in FaSSIF (pH 6.5) and FeSSIF (pH 5).
The format of data set [3] is physicochemical. The text has this:
There was no evidence of form change, dehydration, or amorphous formation after 8 weeks. There was no change in TGA at 8 weeks in all samples.
This is another data set of the same source.

Data set [4] in a line: Solid state stability of Compound 1 free base Form 4. The data set is classed as physicochemical. From the text:
The results of those experiments are in the table, below.

The nature of data set [5]: pH solubility of Compound 1 MSA Salt Form 1. The data set is classed as physicochemical. As to conditions: 22 °C, aqueous buffer, thermodynamic from solid; from pH solubility profile of MSA Salt Form 1; read-out: Solubility for the free-base. As for the experimental part: Measurements were taken using an Orion ATI Model 370 pH meter. […] To each vial was added 5 mL of various aqueous acidic and basic solutions. Each vial was stoppered and vortexed and sonicated to mix well. The pH of each sample was recorded. […] After 24 hours of stirring, the pH of each sample (as a suspension) was recorded. Suspensions were filtered with 0.2 micron Acrodisc syringe filters. The clear filtrates were collected and vortexed to mix well pH of each filtrated was recorded. pH of suspension and filtrate were nearly identical. A 1.0 mL aliquot of each of the filtrates 25-fold using 50% acetonitrile/50% Milli-Q water, q.w. each flask to 25 mL. […] Samples were assayed using the following HPLC method: Column: […] Mobile phase Solvent A: Water w/0.05% TFA • Solvent B: Acetonitrile w/0.05% TFA […] Column temperature: Ambient RT Detector Wavelength: 250 nm […] Working Concentration: […] Added 20 mL of 100% acetonitrile to the vial. Stoppered, vortexed, and sonicated the vial. […] Transferred the suspension to a 250 mL glass volumetric flask, and washed out the glass vial with 4×20 mL 50% acetonitrile/50% Milli-Q water, transferring each wash into the volumetric flask. All solids dissolved. Q.S. the volumetric flask to 250 mL final volume using 50% acetonitrile/50% Milli Q water, shake to give standard solution at 101.5 mcg/mL.

Setting [6] is: 25° C./60% relative humidity, 4-week.
Where [7] appears, read: 40° C./75% relative humidity (closed), 4-week.
Where [8] appears, read: 40° C./75% relative humidity (open), 4-week.
The mark [9] stands for this setting: High intensity light (HIL), 4-week.
The mark [10] stands for this setting: solid state stress conditions tested.

Consider `CS(=O)(=O)O.C[C@@H](C(=O)Nc1ccc(Cl)cc1)[C@H]1CC[C@@H](c2ccnc3ccc(F)cc32)CC1.O` [Compound 1 MSA salt monohydrate Form 2, (R)-N-(4-chlorophenyl)-2-((1S,4S)-4-(6-fluoroquinolin-4-yl)cyclohexyl)propanamide methanesulfonic acid salt monohydrate], for which the form change result in data set [1] (stressing at 75% relative humidity at 40 C for 6 days) was “converts to Compound 1 MSA Salt Form 1 and Compound 1 MSA Salt monohydrate form 2”. For the same compound, in data set [2] (Example 15, FaSSIF, statistically significant difference), the “dissolution rate compared with Compound 1 MSA Salt Form 1” value was “slightly faster”. Besides, the results for the “AUC (Mean)” value in data set [2] (FaSSIF (pH 6.5)) and in data set [2] (FeSSIF (pH 5)) were 14315.281 µg·min/mL and 50014.687 µg·min/mL, respectively. Moreover, the “Dissolution Rate (Mean)” value in data set [2] (FaSSIF (pH 6.5)) is 4.449 µg/mL/min; in data set [2] (FeSSIF (pH 5)), 47.996 µg/mL/min. The “Peak Solubility (Mean)” value in data set [2] (pH 5) turned out to be 287.395 µg/mL; in data set [2] (pH 6.5), 91.325 µg/mL.

On to `C[C@@H](C(=O)Nc1ccc(Cl)cc1)C1CCC(c2ccnc3ccc(F)cc23)CC1.O` (stereo partly drawn) [Compound 1 Free Base monohydrate Form 2, (R)-N-(4-chlorophenyl)-2-((1S,4S)-4-(6-fluoroquinolin-4-yl)cyclohexyl)propanamide monohydrate], for which the “form change on heating” value in data set [1] (heated for ˜2 hours) is recorded as “no form change by XRPD”; in data set [1] (˜79 to 80° C. for 1 day or ˜75° C. under nitrogen gas flow for ˜20 hours), “partial conversion to other crystalline forms”. Also, in data set [1] (heating to ˜125° C.), the behaviour on heating entry is given as “liquefy”. The “form change on dehydration” value in data set [1] (overnight hold at 0% RH) was “converted to an unstable form”. This compound also had a rate of dissolution in data set [2] (Example 16, FeSSIF) of 23 µg/mL/min. In addition, in data set [3], the time chemically stable is recorded as “at least 13.5 weeks”. Moreover, the Area % in data set [3] (setting [6]) is reported as 99.90% Area %; in data set [3] (25° C./60% relative humidity, 8-week), 99.90% Area %; in data set [3] (25° C./60% relative humidity, 13.5 week), 99.73% Area %; in data set [3] (setting [7]), 99.90% Area %; in data set [3] (40° C./75% relative humidity (closed), 8-week), 99.90% Area %; in data set [3] (40° C./75% relative humidity (closed), 13.5 week) it was 99.62% Area %. The Area % in data set [3] (setting [8]) was found to be 99.90% Area %; in data set [3] (40° C./75% relative humidity (open), 8-week) it was 99.90% Area %; in data set [3] (40° C./75% relative humidity (open), 13.5 week) it was 99.63% Area %; in data set [3] (50° C., 4-week), 99.90% Area %; in data set [3] (50° C., 8-week), 99.04% Area %; in data set [3] (50° C., 13.5 week) it was 99.79% Area %. In addition, the Area % is reported as 99.1% Area % in data set [3] (setting [9]); 99.90% Area % in data set [3] (RT/RL (room temperature, room light), 4-week); 99.90% Area % in data set [3] (RT/RL (room temperature, room light), 8-week); 99.78% Area % in data set [3] (RT/RL (room temperature, room light), 13.5 week). Moreover, the “evidence of form change, dehydration, or amorphous formation” value in data set [3] (after 8 weeks) was “no evidence”. In addition, the “changes in PXRD” value in data set [3] (at 4 weeks or 8 weeks in all samples) is “No changes”. For the same compound, the “change in TGA” value in data set [3] (at 8 weeks in all samples) is given as “no change”.

`CS(=O)(=O)O.C[C@@H](C(=O)Nc1ccc(Cl)cc1)[C@H]1CC[C@@H](c2ccnc3ccc(F)cc32)CC1` [Amorphous Compound 1 MSA, (R)-N-(4-chlorophenyl)-2-((1S,4S)-4-(6-fluoroquinolin-4-yl)cyclohexyl)propanamide methanesulfonate]: the results for the form change entry in data set [1] (heat stressing at 60° C. (Example 8A)) and in data set [1] (heat stressing at 60° C. after 9 days) were “recrystallized to Compound 1 MSA Salt Form 1” and “converted to Compound 1 MSA Salt Form 1”, respectively.

Consider `C[C@@H](C(=O)Nc1ccc(Cl)cc1)[C@H]1CC[C@@H](c2ccnc3ccc(F)cc32)CC1` [Compound 1 free base Form 4, (R)-N-(4-chlorophenyl)-2-((1S,4S)-4-(6-fluoroquinolin-4-yl)cyclohexyl)propanamide], for which the form change result in data set [1] (melt/quench experiment, XRPD showed no evidence of crystalline material) is listed as “resulted in a glass with a few fine, birefringent acicular particles”. Besides, the Area % stood at 99.78% Area % in data set [4] (25° C./60% relative humidity, 2-week); 99.77% Area % in data set [4] (setting [6]); 99.78% Area % in data set [4] (40° C./75% relative humidity (closed), 2-week); 99.71 Area % in data set [4] (setting [7]); 99.79% Area % in data set [4] (40° C./75% relative humidity (open), 2-week); 98.46% Area % in data set [4] (setting [8]). The Area % in data set [4] (50° C., 2-week) is on record as 99.68% Area %; in data set [4] (50° C., 4-week), 99.74% Area %; in data set [4] (High intensity light (HIL), 2-week) it was 99.77% Area %; in data set [4] (setting [9]), 99.58% Area %; in data set [4] (RT/RL (room temperature/room light), 2-week), 99.75% Area %; in data set [4] (RT/RL (room temperature/room light), 4-week) it was 99.70% Area %. In data set [4] (setting [10]), the time chemically stable was “at least 4 weeks”. Further, the “time for which no changes were observed” value in data set [4] (setting [10]) is listed as “at least 2 weeks”.

As for `C[C@@H](C(=O)Nc1ccc(Cl)cc1)[C@H]1CC[C@@H](c2ccnc3ccc(F)cc32)CC1` [Compound 1, (R)-N-(4-chlorophenyl)-2-((1S,4S)-4-(6-fluoroquinolin-4-yl)cyclohexyl)propanamide], the solubility at 24 h in data set [5] was 1 to 2 µg/mL.

Consider `C[C@@H](C(=O)Nc1ccc(Cl)cc1)[C@H]1CC[C@@H](c2ccnc3ccc(F)cc32)CC1` [Compound 1 Free Base Amorphous, (R)-N-(4-chlorophenyl)-2-((1S,4S)-4-(6-fluoroquinolin-4-yl)cyclohexyl)propanamide], for which the “form change on heating” value in data set [1] (heated between 67° C. and 150° C.) is reported as “No crystallization was observed”.

In general, solubility refers to the concentration that dissolves in the medium under given conditions.
